Laboratory results taken from US11780826B2 (Amgen Inc., priority 2017, dated 2023).

System: Bovine cardiac myofibrils
Assay: In vitro model of dose-dependent myofibril ATPase modulation (AC1.4, pyruvate kinase/lactate dehydrogenase-coupled ATPase assay at pCa25)
Assay type: biochemical
Conditions: concentration at which ATPase activity was 1.4-fold higher than the bottom of the dose curve, mean of a minimum of two independent tests
Summary of the method: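 Absorbance at 340 nm tracked ATP hydrolysis through pyruvate kinase/lactate dehydrogenase coupling (0.5 mM NADH, 1.5 mM PEP). Myofibrils from detergent-homogenized bovine heart, 1 mM ATP, pH 6.80, EGTA/CaCl2 buffering. Dose-response curves fitted with a four-parameter Hill equation.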

For N#CC1CN(S(=O)(=O)N2CCC[C@H](C(=O)N3CCC[C@@H]3C(=O)NCc3ccc(C(F)(F)F)nc3)C2)C1 [Example 410, 1-(((3S)-1-((3-cyano-1-azetidinyl)sulfonyl)-3-piperidinyl)carbonyl)-N-((6-(trifluoromethyl)-3-pyridinyl)methyl)-D-prolinamide], the AC1.4 was 1.4853 µM.

In the case of O=C(N[C@@H](c1cc(F)c(Cl)cc1F)C1COC1)[C@H]1C[C@@H](O)CN1C(=O)c1ccnc(C(F)(F)F)c1 [Example 399, (4R)-N-((R)-(4-chloro-2,5-difluorophenyl)(3-oxetanyl)methyl)-4-hydroxy-1-((2-(trifluoromethyl)-4-pyridinyl)carbonyl)-D-prolinamide], the AC1.4 is reported as 1.4045 µM.

For Cc1cc(CNC(=O)[C@H]2CCCN2C(=O)[C@H]2CCCN(S(=O)(=O)N3CC(C#N)C3)C2)ccc1F [Example 439, 1-(((3S)-1-((3-cyano-1-azetidinyl)sulfonyl)-3-piperidinyl)carbonyl)-N-(4-fluoro-3-methylbenzyl)-D-prolinamide], the AC1.4 was 1.7125 µM.

C[C@@H](NC(=O)[C@H]1COCCN1C(=O)[C@H]1CCCN(S(=O)(=O)N2CC(C#N)C2)C1)c1ccc(C(F)(F)F)cc1F [Example 54, (3R)-4-(((3S)-1-((3-cyano-1-azetidinyl)sulfonyl)-3-piperidinyl)carbonyl)-N-((1R)-1-(2-fluoro-4-(trifluoromethyl)phenyl)ethyl)-3-morpholinecarboxamide] gave an AC1.4 of 0.0583 µM.

N#CC1CN(S(=O)(=O)c2cccc(C(=O)N3CCC[C@@H]3C(=O)N[C@H](c3ccc(C(F)(F)F)cc3)C3CC3)c2)C1 [Example 37, 1-(3-((3-cyano-1-azetidinyl)sulfonyl)benzoyl)-N-((S)-cyclopropyl(4-(trifluoromethyl)phenyl)methyl)-D-prolinamide] gave an AC1.4 of 0.0383 µM.

N#CC1CN(S(=O)(=O)N2CCC[C@H](C(=O)N3CCC[C@@H]3C(=O)NCc3ccc(F)cc3)C2)C1 [Example 437, 1-(((3S)-1-((3-cyano-1-azetidinyl)sulfonyl)-3-piperidinyl)carbonyl)-N-(4-fluorobenzyl)-D-prolinamide] was tested, and the AC1.4 was 1.7085 µM.

In the case of O=C(N[C@@H](c1cc(F)c(C(F)(F)F)cc1F)C1COC1)[C@H]1C[C@H]2C[C@H]2N1C(=O)c1cc(C(F)(F)F)on1 [Example 823, (1R,3R,5R)-N-((R)-(2,5-difluoro-4-(trifluoromethyl)phenyl)(oxetan-3-yl)methyl)-2-(5-(trifluoromethyl)isoxazole-3-carbonyl)-2-azabicyclo[3.1.0]hexane-3-carboxamide], the AC1.4 is reported as 2.768 µM.

With CS(=O)(=O)c1cc(F)cc(C(=O)N2[C@@H](C(=O)N[C@@H](c3ccc(C(F)(F)F)cc3F)C3COC3)C[C@H]3C[C@H]32)c1 [Example 219, (1R,3R,5R)-2-(3-fluoro-5-(methylsulfonyl)benzoyl)-N-((R)-(2-fluoro-4-(trifluoromethyl)phenyl)(3-oxetanyl)methyl)-2-azabicyclo[3.1.0]hexane-3-carboxamide] the AC1.4 was 0.4808 µM.

Compound O=C(NCc1ccc(C(F)(F)F)cc1)[C@H]1CCCN1C(=O)[C@H]1CCCN(S(=O)(=O)N2CC(C3CCC3)C2)C1 [Example 483, 1-(((3S)-1-((3-cyclobutyl-1-azetidinyl)sulfonyl)-3-piperidinyl)carbonyl)-N-(4-(trifluoromethyl)benzyl)-D-prolinamide] has an AC1.4 of 2.168 µM.

For N#CC1CN(S(=O)(=O)N2CCC[C@H](C(=O)N3CCC[C@@H]3C(=O)N[C@H]3Cc4ccccc43)C2)C1 [Example 565, N-((7S)-bicyclo[4.2.0]octa-1,3,5-trien-7-yl)-1-(((3S)-1-((3-cyano-1-azetidinyl)sulfonyl)-3-piperidinyl)carbonyl)-D-prolinamide], the AC1.4 was 3.077 µM.

For C[C@@H](NC(=O)[C@H]1CCCN1C(=O)[C@@H]1CN(S(=O)(=O)N2CC(C#N)C2)CCN1)c1ccc(Cl)cc1F [Example 254, N-((1R)-1-(4-chloro-2-fluorophenyl)ethyl)-1-(((2S)-4-((3-cyano-1-azetidinyl)sulfonyl)-2-piperazinyl)carbonyl)-D-prolinamide], the AC1.4 was 0.6139 µM.

N#CC1CN(S(=O)(=O)N2CCC[C@H](C(=O)N3CCC[C@@H]3C(=O)NCc3cc(Cl)ccc3F)C2)C1 [Example 549, N-(5-chloro-2-fluorobenzyl)-1-(((3S)-1-((3-cyano-1-azetidinyl)sulfonyl)-3-piperidinyl)carbonyl)-D-prolinamide] showed an AC1.4 of 2.8405 µM.

With O=C(NCc1ccc(C(F)(F)F)cc1)[C@H]1CCCN1C(=O)[C@H]1CCCN(S(=O)(=O)N2CC(OCc3ccc(Cl)cc3)C2)C1 [Example 210, 1-(((3S)-1-((3-((4-chlorobenzyl)oxy)-1-azetidinyl)sulfonyl)-3-piperidinyl)carbonyl)-N-(4-(trifluoromethyl)benzyl)-D-prolinamide] the AC1.4 was 0.4487 µM.

CC[C@H](NC(=O)[C@H]1CCCN1C(=O)[C@H]1CCCN(S(=O)(=O)N2CC(C#N)C2)C1)c1ccc(C(F)(F)F)cc1F [Example 293, 1-(((3S)-1-((3-cyano-1-azetidinyl)sulfonyl)-3-piperidinyl)carbonyl)-N-((1S)-1-(2-fluoro-4-(trifluoromethyl)phenyl)propyl)-D-prolinamide] was tested, and the AC1.4 was 0.7603 µM.

For O=C(NCc1ccc(C(F)(F)F)cc1)[C@H]1CCCN1C(=O)[C@H]1CCCN(S(=O)(=O)N2CC(CC(F)(F)F)C2)C1 [Example 787, 1-(((3S)-1-((3-(2,2,2-trifluoroethyl)-1-azetidinyl)sulfonyl)-3-piperidinyl)carbonyl)-N-(4-(trifluoromethyl)benzyl)-D-prolinamide], the AC1.4 was 8.931 µM.

With CS(=O)(=O)c1cccc(C(=O)N2C[C@@H](F)C[C@@H]2C(=O)N[C@@H](c2ccc(C(F)(F)F)cc2)C2COC2)c1 [Example 546, (4S)-4-fluoro-1-(3-(methylsulfonyl)benzoyl)-N-((R)-3-oxetanyl(4-(trifluoromethyl)phenyl)methyl)-D-prolinamide] the AC1.4 was 2.6257 µM.

Compound CS(=O)(=O)c1cccc(C(=O)N2CCC[C@@H]2C(=O)N[C@@H](c2cc(F)c(C(F)(F)F)cc2F)[C@H]2C[C@H](O)C2)c1 [Example 828, (R)-N-((R)-(2,5-difluoro-4-(trifluoromethyl)phenyl)((lr,3R)-3-hydroxycyclobutyl)methyl)-1-(3-(methylsulfonyl)benzoyl)pyrrolidine-2-carboxamide] has an AC1.4 of 0.1639 µM.

Compound CS(=O)(=O)c1cccc(C(=O)N2[C@@H](C(=O)N[C@@H](c3cc(F)c(C(F)F)cc3F)C3CC3)C[C@H]3C[C@H]32)c1 [Example 197, (1R,3R,5R)-N-((R)-cyclopropyl(4-(difluoromethyl)-2,5-difluorophenyl)methyl)-2-(3-(methylsulfonyl)benzoyl)-2-azabicyclo[3.1.0]hexane-3-carboxamide] has an AC1.4 of 0.3963 µM.

CC(C)(O)c1cccc(C(=O)N2CCC[C@@H]2C(=O)N[C@@H](c2ccc(C(F)(F)F)cc2F)C2CC2)c1 [Example 794, N-((R)-cyclopropyl(2-fluoro-4-(trifluoromethyl)phenyl)methyl)-1-(3-(2-hydroxy-2-propanyl)benzoyl)-D-prolinamide] gave an AC1.4 of 9.2425 µM.

Compound C[C@@H](NC(=O)[C@H]1[C@@H]2C[C@@H]2CN1C(=O)c1cccc(S(=O)(=O)N(C)C)c1)c1ccc(C(F)(F)F)cc1 [Example 572, (1R,2R,5S)-3-(3-(dimethylsulfamoyl)benzoyl)-N-((1R)-1-(4-(trifluoromethyl)phenyl)ethyl)-3-azabicyclo[3.1.0]hexane-2-carboxamide] has an AC1.4 of 3.205 µM.

CS(=O)(=O)c1ccc(NCCO)c(C(=O)N2CCC[C@@H]2C(=O)N[C@@H](c2ccc(C(F)(F)F)cc2F)C2CC2)c1 [Example 154, N-((R)-cyclopropyl(2-fluoro-4-(trifluoromethyl)phenyl)methyl)-1-(2-((2-hydroxyethyl)amino)-5-(methylsulfonyl)benzoyl)-D-prolinamide] was tested, and the AC1.4 was 0.2715 µM.

O=C(NCc1ccc(C(F)(F)F)cc1)[C@H]1CCCN1C(=O)[C@H]1CCCN(S(=O)(=O)N2CCC2c2ccc(Cl)cc2)C1 (stereo partly drawn) [Example 697, (2R)-1-((3S)-1-((2-(4-chlorophenyl)azetidin-1-yl)sulfonyl)piperidine-3-carbonyl)-N-(4-(trifluoromethyl)benzyl)pyrrolidine-2-carboxamide] gave an AC1.4 of 5.5445 µM.

Compound N#CC1CN(S(=O)(=O)c2cccc(C(=O)N3CCC[C@@H]3C(=O)NCc3ccc(Cl)nc3)c2)C1 [Example 260, N-((6-chloro-3-pyridinyl)methyl)-1-((3-((3-cyano-1-azetidinyl)sulfonyl)phenyl)carbonyl)-D-prolinamide] has an AC1.4 of 0.639 µM.

In the case of N#CC1CN(S(=O)(=O)c2cccc(C(=O)N3CC(F)(F)C[C@@H]3C(=O)NCc3ccc(C(F)(F)F)nc3)c2)C1 [Example 95, 1-((3-((3-cyano-1-azetidinyl)sulfonyl)phenyl)carbonyl)-4,4-difluoro-N-((6-(trifluoromethyl)-3-pyridinyl)methyl)-D-prolinamide], the AC1.4 is reported as 0.1446 µM.

Compound N#CC1CN(S(=O)(=O)N2CCC[C@H](C(=O)N3CCC[C@@H]3C(=O)NCc3cccc(Cl)c3Cl)C2)C1 [Example 206, 1-(((3S)-1-((3-cyano-1-azetidinyl)sulfonyl)-3-piperidinyl)carbonyl)-N-(2,3-dichlorobenzyl)-D-prolinamide] has an AC1.4 of 0.4338 µM.

COc1cc(C(C)NC(=O)[C@H]2CCCN2C(=O)[C@H]2CCCN(S(=O)(=O)N3CC(C#N)C3)C2)ccc1OC(F)F (stereo partly drawn) [Example 632, (2R)-1-((S)-1-((3-cyanoazetidin-1-yl)sulfonyl)piperidine-3-carbonyl)-N-(1-(4-(difluoromethoxy)-3-methoxyphenyl)ethyl)pyrrolidine-2-carboxamide] showed an AC1.4 of 4.0915 µM.

With CC[C@H](NC(=O)[C@H]1CCCN1C(=O)[C@H]1CCCN(S(=O)(=O)N2CC(C#N)C2)C1)c1ccc(C(F)(F)F)cc1 [Example 195, 1-(((3S)-1-((3-cyano-1-azetidinyl)sulfonyl)-3-piperidinyl)carbonyl)-N-((1S)-1-(4-(trifluoromethyl)phenyl)propyl)-D-prolinamide] the AC1.4 was 0.3859 µM.
